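96-well plates; 48 h exposure; 5 concentrations. Endpoints by linear interpolation between flanking doses. Not reached: highest tested concentration assigned. GI50 marks 50% less growth. TGI denotes the concentration required for complete inhibition of growth.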
Assays:
Test in all cases: NCI tumour cell line growth inhibition, 48 h
HT29 colon = test system: HT29 colon
COLO 205 colon = test system: COLO 205 colon
SR leukemia = test system: SR leukemia
HCT-15 colon = test system: HCT-15 colon
T-47D breast = test system: T-47D breast
TK-10 renal = test system: TK-10 renal
BT-549 breast = test system: BT-549 breast
OVCAR-3 ovarian = test system: OVCAR-3 ovarian
NCI-H226 lung = test system: NCI-H226 lung
NCI-H460 lung = test system: NCI-H460 lung

Compound	GI50 (HT29 colon) [µM]	TGI (HT29 colon) [µM]	GI50 (COLO 205 colon) [nM]	TGI (COLO 205 colon) [µM]	GI50 (SR leukemia) [nM]	TGI (SR leukemia) [µM]	GI50 (HCT-15 colon) [µM]	TGI (HCT-15 colon) [µM]	GI50 (T-47D breast) [nM]	TGI (T-47D breast) [µM]	GI50 (TK-10 renal) [µM]	TGI (TK-10 renal) [µM]	GI50 (BT-549 breast) [µM]	TGI (BT-549 breast) [µM]	GI50 (OVCAR-3 ovarian) [nM]	TGI (OVCAR-3 ovarian) [µM]	GI50 (NCI-H226 lung) [nM]	TGI (NCI-H226 lung) [µM]	GI50 (NCI-H460 lung) [µM]	TGI (NCI-H460 lung) [µM]
O=C(c1ccccc1)c1ccc(Oc2ccc([N+](=O)[O-])cc2[N+](=O)[O-])cc1	4.08	20.8	2400	5.46	2600	7.79	3.48	> 100	2820	23.5	8.33	> 100	3.75	40.3	2300	5.07	2520	8.57	8.62	33.3
NC(=O)c1ccc(NN=O)nc1		> 100		> 100		> 100		> 100		> 100		> 100		> 100		> 100		> 100		> 100

— PubChem BioAssay (NCI)
